Laboratory results as given in patent US5416231A, “Prostaglandin I2 derivatives” (Asahi Glass Company, Ltd., priority 1990, dated 1995).
In brackets after ≈: the same amount, converted by molar mass. Counter-ions that a name gives are not always drawn. Blank lines part the entries; values can stand above or below the compound they belong to.

Assays:
platelet aggregation [1] = assay: Inhibitory activities on platelet aggregation, in vitro (ADP-induced); assay type: cell-based, guinea pig (Hartley strain); conditions: platelet rich plasma, 10 minutes incubation, adenosine diphosphate 1 micro M; for IC50: Cavia porcellus, Platelet, 10 min
Experimental: (§1) From a guinea pig (Hartley strain), citric acid-added blood was obtained by a cardiac puncture. The blood was centrifuged at 120×g for 10 minutes, and the supernatant platelet rich plasma was separated. Measurement of platelet aggregation was conducted by means of an aggregometer in accordance with the Bone's nephelometry (G. V. R. Bone; Nature, vol 194, p 927, 1962). In a test in vitro, a test compound was added to the platelet rich plasma, and the mixture was incubated for 10 minutes. Then, adensoine diphosphate (1 micro M) was added to induce platelet aggregation. The degree of aggregation was represented by the maximum change in the light transmittance (the maximum aggregation rate) within 5 minutes after the addition of adenosine diphosphate, and the results are shown by a 50% inhibitory concentration. In a test ex vivo, a test compound was dissolved in ethanol, then suspended in a 0.5% tragacanth solution or in a 1% β-cyclodextrin solution and orally administered. From blood obtained by a cardiac puncture 30 minutes after the administration, a platelet rich plasma was prepared, and platelet aggregation was measured in the same manner as in the case of the test in vitro.

platelet aggregation [2] = assay: Inhibitory activities on platelet aggregation, ex vivo after oral administration (ADP-induced); assay type: in vivo, guinea pig (Hartley strain); conditions: 30 minutes after administration; for minimal effective dose: Cavia porcellus, Platelet, 0.5 h, read-out: ex vivo MED (minimum effective dose showing significant inhibitory effects, P < 0.05)
Experimental: as §1

[3] = system: vasopressin-induced ST depression; assay: Anti-anginal activities (Preventive activities on vasopressin-induced ST depression); assay type: in vivo, male rat (Donryou strain); conditions: for minimal effective dose: Rattus norvegicus, read-out: Oral administration MED (minimum effective dose showing a significant preventive activity); for minimal effective dose / Oral administration MED (minimum effective dose showing a significant preventive activity): oral, 30 minutes prior to vasopressin (0.2 IU/kg)
Experimental: Vasopressin (0.2 IU/kg) was administered from the femoral vein of a male rat (Donryou strain) anesthetized with pentobarbital, and the electrocardiogram was recorded for 5 seconds each at intervals of 30 seconds over a period of 5 minutes after the administration. The depression of ST-segment (the average of five pulses) was calculated on the electrocardiogram. The test compound was dissolved in ethanol and intravenously administered 2 minutes prior to the administration of vasopressin, or after being dissolved in ethanol, suspended in a 0.5% tragacanth solution or in a 1% β-cyclodextrin solution and orally administered 30 minutes prior to the administration of vasopressin. The differences of the ST depression between the test compound-administered group and the non-treated control group (5 animals for each group) were analysed by two-way layout analysis of variance.

male mice of ddY strain = assay: Acute toxicity, oral; assay type: in vivo; conditions: 20 mg/kg, 1% β-cyclodextrin solution, 7 days
Experimental: To male mice of ddY strain weighing 25-32 g (five animals per each group), a predetermined dose of a test compound dissolved in a small amount of ethanol and then diluted with a 1% β-cyclodextrin solution, was orally administered, and the mortality was recorded over a period of 7 days after the administration.

[4] = Solvent Y: 1% β-cyclodextrin solution
[5] = Solvent X: 0.5% tragacanth solution

Compound: CCCCC(C)C[C@H](O)/C=C/[C@@H]1[C@@H]2[C@H](C[C@H]1O)O/C(=C\C1CC(C(=O)OC)C1)[C@@H]2F (stereo partly drawn) [Compound D-a, methyl ester of 2,4-methylene-7α-fluoro-17,20-dimethylPGI2]
IC50 (platelet aggregation [1]): 2.88 ng/mL (≈ 6.78 nM) | minimal effective dose (platelet aggregation [2]; [4]): 0.3 mg/kg

in vitro IC50 (platelet aggregation [1]): 5.50 ng/mL
Compound: methyl ester of (1S*,3R*)-2,4-ethylene-7α-flouro-17,20-dimethylPGI2 [Compound C]

Compound: CCCCC[C@H](O)/C=C/[C@@H]1[C@H]2C/C(=C/CCCC(=O)O)O[C@H]2C[C@H]1O [Compound F, natural PGI2, reference compound]
minimal effective dose (platelet aggregation [2]; [4]): > 10 mg/kg

IC50 (platelet aggregation [1]): 18.3 ng/mL
Compound: CCCCC(C)C[C@H](O)/C=C/[C@@H]1[C@@H]2[C@H](C[C@H]1O)O/C(=C\CC1CC1C(=O)O)[C@@H]2F (stereo partly drawn) [Compound A, sodium salt of 2,3-methylene-7α-fluoro-17,20-dimethylPGI2]

Compound: CCCCC(C)C[C@H](O)/C=C/[C@@H]1[C@@H]2[C@H](C[C@H]1O)O/C(=C\C1CC(C(=O)OC)C1)[C@@H]2F (stereo partly drawn) [Compound D-b, methyl ester of 2,4-methylene-7α-fluoro-17,20-dimethylPGI2]
in vitro IC50 (platelet aggregation [1]): 1.50 ng/mL | ex vivo MED (minimum effective dose showing significant inhibitory effects, P < 0.05) (platelet aggregation [2]; [4]): 0.3 mg/kg | minimal effective dose [3, 4]: 0.1 mg/kg | Number of dead animals/Number of test animals (male mice of ddY strain): 0/5

in vitro IC50 (platelet aggregation [1]): 0.87 ng/mL
Compound: methyl ester of (1S*,3S*)-2,4-ethylene-7α-fluoro-17,20-dimethylPGI2 [Compound B-b]
ex vivo MED (minimum effective dose showing significant inhibitory effects, P < 0.05) (platelet aggregation [2]; [5]): 0.3 mg/kg | Intravenous administration MED (minimum effective dose showing a significant preventive activity) ([3]; intravenous, in ethanol, 2 minutes prior to vasopressin (0.2 IU/kg)): 0.001 mg/kg | Oral administration MED (minimum effective dose showing a significant preventive activity) [3, 5]: 0.01 mg/kg

Compound: CCCCC(C)C[C@H](O)/C=C/[C@@H]1[C@@H]2[C@H](C[C@H]1O)O/C(=C\C1CC(C(=O)O)C1)[C@@H]2F (single isomer, unassigned) [Compound E-a, sodium salt of 2,4-methylene-7α-fluoro-17,20-dimethylPGI2]
IC50 (platelet aggregation [1]): 1.13 ng/mL | Oral administration MED (minimum effective dose showing a significant preventive activity) [3, 4]: 0.1 mg/kg

Compound: CCCCC(C)C[C@H](O)/C=C/[C@@H]1[C@@H]2[C@H](C[C@H]1O)O/C(=C\C1CC(C(=O)O)C1)[C@@H]2F (single isomer, unassigned) [Compound E-b, sodium salt of 2,4-methylene-7α-fluoro-17,20-dimethylPGI2]
in vitro IC50 (platelet aggregation [1]): 1.70 ng/mL | minimal effective dose (platelet aggregation [2]; [4]): 0.3 mg/kg | minimal effective dose [3, 4]: 0.1 mg/kg | Number of dead animals/Number of test animals (male mice of ddY strain): 0/5
